Assay results as given in patent US8945397B2, “Methods of inhibiting cyanobacteria growth by administering gramine derivatives” (priority 2012, dated 2015).
Converted amounts (≈) assume the structure as drawn. “Also recorded” adds a separate entry of the source.

Legend:
M. Aeruginosa [1] = experiment: Liquid culture optical absorption assay (OD600) of M. aeruginosa growth, 15 days; type: cell-based, Microcystis aeruginosa; settings: for OD600 Measured at Day 15 (Starting OD600 at Day 0 is 0.100): 0.5 mg/L compound, liquid culture, control 2.83; for Inhibition of M. aeruginosa growth in words (liquid culture): 0.5 mg/L, Table 2 and FIG. 3
Experimental: To quantitatively measure M. Aeruginosa cell growth in responding to various gamine compounds, cell densities were determined by an optical absorption assay as measured by a spectrophotometer (Nanodrop 2000, Thermo Scientific). In the optical absorption assay, the absorbance of radiation (light) is measured as a function of frequency (wavelength). For this optical absorption assay, the algal cell density was determined at 600 nm wavelength. Equal amount of starting cells (optical density at wavelength 600 nm, OD600, was at 0.100 on Day 0) were placed in freshwater culture for 15 days of growth. After 15 days, the algae cell suspension is pipetted into a cuvette and placed within the spectrophotometer for the optical absorption assay.
There is a clear and distinct decrease in M. Aeruginosa algae growth when administered with 5,6-dichlogramine (Compound No. 9) and with 5,6,7-trichlorogramine (Compound No. 12) compared to M. Aeruginosa algae growth in control samples.

[2] = tested on: M. aeruginosa cyanobacteria, isolate strain 2667; experiment: Petri dish screen of gramine compounds for M. aeruginosa growth inhibition; type: cell-based, Microcystis aeruginosa; settings: about 0.5 mg/L compound in BG-11 medium, after 15 days, FIG. 2
Experimental: The screen tested the compounds on M. aeruginosa cyanobacteria, isolate strain 2667 from Culture Collection of Algae (CCA) at the University of Texas at Austin. For the initial screening test, the twelve compounds were each administered at different concentrations of: 0.5 mg/L, 1.0 mg/L, 2.0 mg/L, 4.0 mg/L, and 8.0 mg/L. The compounds were added to a freshwater culture medium (BG-11 Medium from the CCA, UTEX) in petri dishes. The petri dish plates were then incubated at about 22° C. in a lighted growth chamber with about 16-hr light and about 8-hr dark. M. aeruginosa algae growth in the petri dishes were examined and documented after 15 days of incubation.
M. aeruginosa cells were streaked out on BG-11 medium that contained about 0.5 mg/L of the indicated compound. […] The faint algae smears for petri dishes streaked with 5,6-dichlogramine show the original algae cells that had died in the petri dish. […] The faint algae smears for petri dishes streaked with 5,6,7-trichlogramine show the original algae cells that had died in the petri dish.

M. Aeruginosa [3] = experiment: Optical absorption assay of M. aeruginosa growth at varying concentrations, 8 days, with LC50 calculation; type: cell-based, Microcystis aeruginosa; settings: for OD600 as % of the corresponding OD600 measurement of the control sample: 8 days; for OD600 of M. aeruginosa after 8 days: start OD600 0.1, control about 2.4; for LC50: Microcystis aeruginosa, 192 h, read-out: Lethal Concentration 50 (LC50)
Experimental: (§1) Different concentrations of 5,6-dichlorogramine were administered to M. aeruginosa cells as indicated. M. aeruginosa cell density measurements were taken every 24 hours. […] During the first 3 days, the M. aeruginosa cell densities for the control sample and the 5,6-dichlorogramine samples were similar. But starting on day 4, there was larger differentiation in M. aeruginosa cell densities between the control samples and the 5,6-dichlorogramine administered samples. […] In contrast, the OD600 of M. aeruginosa after 8 days of exposure to 0.05 mg/L 5,6-dichlorogramine was about 0.9, only about 38% of the corresponding OD600 measurement of the control sample. The OD600 measurement for M. aeruginosa after 8 days of exposure to about 0.2 mg/L 5,6-dichlorogramine was about 0.6, only about 25% of the corresponding OD600 measurement of the control sample. The OD600 measurement for M. aeruginosa after 8 days of exposure to about 0.8 mg/L 5,6-dichlorogramine was about 0.3, only about 13% of the corresponding OD600 measurement of the control sample.
as §1, with “5,6,7-trichlorogramine” for “5,6-dichlorogramine”
LC50 is a common way to describe the median lethal concentration of an administered agent in a medium, such as air or water, needed to kill half of the organism population living within the medium. LC50 is a well-known method of describing the acute toxicity of an administered agent on the target organism population.
(§2) In FIG. 6, the optical density measurement (OD600) of the M. aeruginosa cells on day 8 was plotted against the administered 5,6-dichlorogramine concentration. […] Half of about 2.4 is about 1.2, and according to FIG. 6, the 1.2 optical density measurement corresponds to an approximately 0.03 mg/L 5,6-dichlorogramine concentration. Based on these calculations, the effective amount of 5,6-dichlorogramine to administer to control the growth and spread of M. aeruginosa algae in fresh water may be a 5,6-dichlorogramine concentration ranging between about 0.01 mg/L and about 0.05 mg/L, and may be more specifically about 0.03 mg/L.
as §2, with “7,” for “6,”, “(ODo)” for “(OD600)”, “5,6,7-trichlorogramine” for “5,6-dichlorogramine”

M. Aeruginosa [4] = experiment: Effective potency duration test in 1 L tap fresh water; type: cell-based, Microcystis aeruginosa; settings: about 0.05 mg/L; for OD600 after 180 days / OD600 after 15 days of M. aeruginosa growth: 1 L tap fresh water; for OD600 after 15 days of M. aeruginosa growth: unadministered control 0.119; for duration of effectiveness after administration: single administration
Experimental: Both 5,6-dichlorogramine and 5,6,7-trichlorogramine are not only potent M. aeruginosa growth inhibitors, but they are effective inhibitors for a long period of time. In an experiment to test the effective potency duration of the compound, an equal amount of M. aeruginosa was grown in each of two containers, each containing about 1 L of fresh water from an urban sink tap. One container was administered with about 0.05 mg/L of 5,6-dichlorogramine, and the control container was not administered with any compounds. After 15 days of M. aeruginosa growth, the OD600 measurement for the unadministered M. aeruginosa freshwater sample was 0.119. The unadministered M. aeruginosa freshwater sample was discarded after 15 days. In contrast, after 15 days of M. aeruginosa growth, the OD600 measurement for the 5,6-dichlorogramine administered freshwater sample was 0.003. After 180 days, the OD600 measurement for the M. aeruginosa freshwater sample administered with 5,6-dichlorogramine remained at 0.003.
In another experiment, an equal amount of M. aeruginosa was grown in each of two containers, each containing about 1 L of fresh water from an urban sink tap. One container was administered with about 0.05 mg/L of 5,6,7-trichlorogramine, and the control container was not administered with any compounds. After 15 days of M. aeruginosa growth, the OD600 measurement for the unadministered M. aeruginosa freshwater sample was 0.119. The unadministered M. aeruginosa freshwater sample was discarded after 15 days. In contrast, after 15 days of M. aeruginosa growth, the OD600 measurement for the 5,6,7-trichlrogramine administered freshwater sample was 0.003. After 180 days, the OD600 measurement for the M. aeruginosa freshwater sample administered with 5,6,7-trichlorogramine remained at 0.003.

Arabidopsis thaliana = experiment: Toxicity to Arabidopsis thaliana plants in petri dishes; type: in vivo; settings: 8 mg/L in MS medium
Experimental: The effects of both compounds were tested on Arabidopsis thaliana, a small flowering plant that is widely used as an experimental model plant for laboratory studies. A. thaliana seeds were placed in petri dishes containing standard plant growth media with one gramine compound added (about 8 mg/L). For the control sample, the seeds were placed on the identical growth media without any gramine compound added. All petri dishes containing A. thaliana were kept in a lighted plant growth chamber at 22° C. with cycles of 16-hr light and 8-hr dark. Seed germination and seedling development were closely monitored and documented every 24 hours.
(§3) FIGS. 8a and 8b show images of A. thaliana plants after 8 days of plant growth, or 8 days after germination. The A. thaliana plants were grown in petri dishes filled with Murashige and Skoog medium (MS plant growth medium containing both macronutrients, micronutrients, and vitamins) purchased from Sigma (Cat #M5519)).
as §3, with “9a” for “8a”, “9b” for “8b”, “10” for “8”, “of” for “of plant”

N. closterium algae = settings: Li et al. 2009; cited from earlier work
M. Aeruginosa [5] = settings: according to the Hong articles; cited from earlier work
[6] = tested on: M. aeruginosa cyanobacterium; settings: U.S. Pat. No. 7,612,049; cited from earlier work

## CN(C)Cc1c[nH]c2ccc(Cl)cc12 [Compound No. 1, 5-chlorogramine]
M. Aeruginosa [1]
  OD600 Measured at Day 15 (Starting OD600 at Day 0 is 0.100): 1.89
  Inhibition of M. aeruginosa growth in words (liquid culture): some inhibitory effects

## CN(C)Cc1c[nH]c2cc(Cl)c(Cl)cc12 [Compound No. 9, 5,6-dichlorogramine]
[2]
  M. aeruginosa growth in petri dishes: no M. aeruginosa growth; also recorded: inhibited M. aeruginosa growth completely
M. Aeruginosa [1]
  Inhibition of M. aeruginosa growth in words (liquid culture): significantly inhibit the growth
M. Aeruginosa [3]; 0.05 mg/L
  OD600 as % of the corresponding OD600 measurement of the control sample: about 38%
  OD600 of M. aeruginosa after 8 days: about 0.9
M. Aeruginosa [3]
  LC50: ~0.03 µg/mL (≈ 0.123 µM)
M. Aeruginosa [3]; about 0.2 mg/L
  OD600 as % of the corresponding OD600 measurement of the control sample: about 25%
  OD600 of M. aeruginosa after 8 days: about 0.6
M. Aeruginosa [3]; about 0.8 mg/L
  OD600 as % of the corresponding OD600 measurement of the control sample: about 13%
  OD600 of M. aeruginosa after 8 days: about 0.3
M. Aeruginosa [4]
  OD600 after 180 days: 0.003
  OD600 after 15 days of M. aeruginosa growth: 0.003
  duration of effectiveness after administration: at least 180 days
Arabidopsis thaliana; 8 days after germination
  growth and development of A. thaliana versus control: no growth or developmental difference
N. closterium algae
  inhibition of growth of saltwater N. closterium algae: inhibit the growth

## CN(C)Cc1c[nH]c2c(Cl)c(Cl)c(Cl)cc12 [Compound No. 12, 5,6,7-trichlorogramine]
[2]
  M. aeruginosa growth in petri dishes: no M. aeruginosa growth; also recorded: inhibited M. aeruginosa growth completely
M. Aeruginosa [1]
  Inhibition of M. aeruginosa growth in words (liquid culture): significantly inhibit the growth
M. Aeruginosa [3]; 0.05 mg/L
  OD600 as % of the corresponding OD600 measurement of the control sample: about 38%
  OD600 of M. aeruginosa after 8 days: about 0.9
M. Aeruginosa [3]
  LC50: ~0.03 µg/mL (≈ 0.108 µM)
M. Aeruginosa [3]; about 0.2 mg/L
  OD600 as % of the corresponding OD600 measurement of the control sample: about 25%
  OD600 of M. aeruginosa after 8 days: about 0.6
M. Aeruginosa [3]; about 0.8 mg/L
  OD600 as % of the corresponding OD600 measurement of the control sample: about 13%
  OD600 of M. aeruginosa after 8 days: about 0.3
M. Aeruginosa [4]
  OD600 after 180 days: 0.003
  OD600 after 15 days of M. aeruginosa growth: 0.003
  duration of effectiveness after administration: at least 180 days
Arabidopsis thaliana; 10 days after germination
  growth and development of A. thaliana versus control: no growth or developmental difference

## CN(C)Cc1c[nH]c2ccccc12 [N,N-dimethyl-3-amino-methylindole]
M. Aeruginosa [5]
  concentration needed to inhibit the growth of M. aeruginosa: at least 8 mg/L

## CN(C)Cc1c[nH]c2ccc(Br)cc12 [compound 2, 5-bromogramine]
M. Aeruginosa [1]
  OD600 Measured at Day 15 (Starting OD600 at Day 0 is 0.100): 1.95
  Inhibition of M. aeruginosa growth in words (liquid culture): some inhibitory effects

## COc1ccc2[nH]cc(CN(C)C)c2c1 [compound 3, 5-methoxygramine]
M. Aeruginosa [1]
  OD600 Measured at Day 15 (Starting OD600 at Day 0 is 0.100): 2.45

## Cc1cccc2[nH]cc(CN(C)C)c12 [compound 4, 4-methylgramine]
M. Aeruginosa [1]
  OD600 Measured at Day 15 (Starting OD600 at Day 0 is 0.100): 2.49

## CN(C)Cc1c[nH]c2ccc(C#N)cc12 [compound 5, 5-cyanogramine]
M. Aeruginosa [1]
  OD600 Measured at Day 15 (Starting OD600 at Day 0 is 0.100): 2.32

## CN(C)Cc1c[nH]c2cc(OCc3ccccc3)ccc12 [compound 7, 6-benzyloxygramine]
M. Aeruginosa [1]
  OD600 Measured at Day 15 (Starting OD600 at Day 0 is 0.100): 2.12
  Inhibition of M. aeruginosa growth in words (liquid culture): some inhibitory effects

## CN(C)Cc1c[nH]c2cccc(OCc3ccccc3)c12 [compound 8, 4-benzyloxygramine]
M. Aeruginosa [1]
  OD600 Measured at Day 15 (Starting OD600 at Day 0 is 0.100): 2.54

## COc1cccc2[nH]cc(CN(C)C)c12 [compound 10, 4-methoxygramine]
M. Aeruginosa [1]
  OD600 Measured at Day 15 (Starting OD600 at Day 0 is 0.100): 2.66

## CN(C)Cc1c[nH]c2cccc(C#N)c12 [compound 11, 4-cyanogramine]
M. Aeruginosa [1]
  OD600 Measured at Day 15 (Starting OD600 at Day 0 is 0.100): 2.50

## N[C@H]1C(O)O[C@H](CO)[C@@H](O)[C@@H]1O (some centres unmarked) [glucosamine]
[6]
  concentration to inhibit the growth of M. aeruginosa: 10-50 ppm
